system: not listed separately; assay: C18-HPLC assay (hydrophobicity); format: physicochemical; conditions: Zorbax SB C18, PBS pH 7.4/methanol, extrapolated to zero organic modifier
Experimental: The principles of hydrophobicity determination by HPLC are characterized by the logarithm of retention factor (k), defined as logk = log (tR−t0)/t0, where tR is retention time of analyte and t0 is the dead time. […] The percentage of methanol in the mobile phase was optimized so that the analytes had retention time between dead time and a maximum of 20 min keeping the analysis time as short as possible, and the peak shape acceptable (peak asymmetry factor were between 0.8 and 1.2). […] The HPLC hydrophobicity index, logk0, was determined by extrapolation of the organic modifier in the mobile phase to its zero concentration.
(§1) Stock solutions of analytes and calibration standards were prepared by dissolving 10 mg of each solute in 10 mL of methanol and kept at 4 °C. Working solutions were freshly prepared at the beginning of each day by dilution of the stock solutions to 100 μg/mL with methanol for TLC measurements or mobile phase for HPLC measurements. Before use, the samples were sonicated (Elmasonic XtraTT, Elma Schmidbauer) for 10 min at 25 °C and all working solutions were filtered through 0.2 µm polyethersulfone filters (Obrnuta faza). To protect analytes from photodegradation, the amber glass HPLC vials were used.
C18-HPLC assay was carried out at Agilent HPLC 1100 and Zorbax SB C18 chromatographic column (length 250 mm.6 mm, particle size 5 µm) by Agilent Technologies, while IAM-HPLC assay was conducted using IAM P.C.DD2 chromatographic column (length 50 mm, i.d. 3.0 mm, particle size […]) by Regis Technologies (Morton Grove, IL, USA). Retention data were collected at 25.0 ± 0.1 °C using isocratic method working with mobile phases, mixing the respective amounts of PBS (10 mM, pH 7.4) and methanol from 35% to 80% of organic solvent in 5% increment. Each mobile phase was shaken vigorously and filtrated through membrane filter, no. 66, diameter 47 mm, pore size 0.45 µm by Supelco and degassed by sonication 5 min before use. The injection volume was set at 10 µL, and the measurements were carried out at flow rate 1.0 mL/min. Natrium nitrate solution (0.1 mg/mL in mobile phase) was used as the marker of dead-time. The absorbance of the analytes during a chromatographic run was collected in the spectral range of 200–400 nm, and the detection wavelength for each analyte was the one providing the maximum peak height.

logk0 (HPLC hydrophobicity index, intercept of linear equation) | Structure (SMILES)
y = −0.0271 x + 1.9065 | C=C1CC[C@@H]2[C@](C)(CO)[C@H](O)CC[C@@]2(C)[C@@H]1C/C=C1/C(=O)OC[C@H]1O [Andrographolide, andrographolide]
y = −0.0359 x + 2.8595 | C=C1CC[C@@H]2[C@](C)(CO[C@@H]3O[C@H](CO)[C@@H](O)[C@H](O)[C@H]3O)CCC[C@@]2(C)[C@@H]1CCC1=CCOC1=O [Neoandrographolide, neoandrographolide]
y = −0.0394 x + 3.4218 | O=C(/C=C/C=C/c1ccc2c(c1)OCO2)N1CCCCC1 [Piperine, piperine]

The next lines start with the molecule.

Structure (SMILES) | logk0 (HPLC hydrophobicity index, intercept of linear equation)
O=C(C=Cc1ccc(O)cc1)CC(=O)C=Cc1ccc(O)cc1 [Bisdemetoxycurcumin, bisdemetoxycurcumin] | y = −0.0447 x + 3.4174
COc1cc(/C=C/C(=O)CC(=O)/C=C/c2ccc(O)cc2)ccc1O [Demetoxycurcumin, demetoxycurcumin] | y = −0.0448 x + 3.4349

same assay, conditions: compared to andrographolide

Structure (SMILES) | difference in logk0 values versus andrographolide [units]
C=C1CC[C@@H]2[C@](C)(CO[C@@H]3O[C@H](CO)[C@@H](O)[C@H](O)[C@H]3O)CCC[C@@]2(C)[C@@H]1CCC1=CCOC1=O [Neoandrographolide, neoandrographolide] | 0.95

system: not listed separately; assay: C18-TLC assay (hydrophobicity); format: physicochemical; conditions: RP-18 TLC, PBS pH 7.4/methanol, extrapolated to zero organic modifier
Excerpt: In TLC measurements RF value depends on the chemical structure of analyte and its interaction with stationary and mobile phase. […] As it was expected, with increase in the percentage of organic modifier in the mobile phase the increase in RF values can be seen with accompanied decrease in RM values expressed as RM = log(1/RF - 1). Measured RF values were in the range from 0.1 to 0.7 obtained in a wide range of mobile phase organic modifier concentrations. […] Increasing concentration of the organic modifier in the mobile phase caused a slower decrease in the RM values for less hydrophobic analytes than for more hydrophobic ones. […] Increase in the hydrophobicity within curcuminoids and andrographolides is related to increase in lipophilicity determined by shake-flask method (Table 3). Stock solutions of analytes and calibration standards were prepared by dissolving 10 mg of each solute in 10 mL of methanol and kept at 4 °C. Working solutions were freshly prepared at the beginning of each day by dilution of the stock solutions to 100 μg/mL with methanol for TLC measurements or mobile phase for HPLC measurements. Before use, the samples were sonicated (Elmasonic […]) for 10 min at 25 °C and all working solutions were filtered through 0.2 μm polyethersulfone filters (Obrnuta faza). To protect analytes from photodegradation, the amber glass HPLC vials were used. Analyses were carried out using a commercially available 10 cm x 20 cm RP-18 TLC plates with fluorescent indicator (Merck KGaA). 5 μL of each working solution ([…]) was applied to the plates as 5 mm bends, 10 mm from the lower edge and 15 mm from sides of plates. The mobile phases were prepared by mixing the respective amounts of PBS (20 mM, pH 7.4) and methanol from 50% to 80% of organic solvent in 5% increment. The vertical flat-bottom chamber ([…], Switzerland) with a stainless-steel lid was saturated with mobile phase for 30 min. The plates were developed to a distance of 9 cm at room temperature, dried in the open air for 5 min and visualized under λ = 254 nm UV light (UV Cabinet with Dual Wavelength UV lamp by Camag).

RM0 (TLC hydrophobicity index, intercept of linear equation) | Structure (SMILES)
y = −0.0302 x + 2.0908 | C=C1CC[C@@H]2[C@](C)(CO)[C@H](O)CC[C@@]2(C)[C@@H]1C/C=C1/C(=O)OC[C@H]1O [Andrographolide, andrographolide]
y = −0.0334 x + 2.1672 | C=C1CC[C@@H]2[C@](C)(CO[C@@H]3O[C@H](CO)[C@@H](O)[C@H](O)[C@H]3O)CCC[C@@]2(C)[C@@H]1CCC1=CCOC1=O [Neoandrographolide, neoandrographolide]
y = −0.0526 x + 4.4044 | O=C(/C=C/C=C/c1ccc2c(c1)OCO2)N1CCCCC1 [Piperine, piperine]

Continued, molecule first:

Structure (SMILES) | RM0 (TLC hydrophobicity index, intercept of linear equation)
O=C(C=Cc1ccc(O)cc1)CC(=O)C=Cc1ccc(O)cc1 [Bisdemetoxycurcumin, bisdemetoxycurcumin] | y = −0.0503 x + 4.1751
COc1cc(/C=C/C(=O)CC(=O)/C=C/c2ccc(O)cc2)ccc1O [Demetoxycurcumin, demetoxycurcumin] | y = −0.0504 x + 4.1781

same assay, conditions: compared to andrographolide

Structure (SMILES) | difference in RM0 values versus andrographolide [units]
C=C1CC[C@@H]2[C@](C)(CO[C@@H]3O[C@H](CO)[C@@H](O)[C@H](O)[C@H]3O)CCC[C@@]2(C)[C@@H]1CCC1=CCOC1=O [Neoandrographolide, neoandrographolide] | 0.08

target: T1, human serum albumin (HSA) (Homo sapiens, UniProt P02768); assay: HSA-HPAC assay (plasma protein binding); format: in vitro ADME; conditions: Chiralpak-HSA, pH 7.4, 25 °C; spread is RSD in %
T1 construct: purchased ChromTech (Cedex, France) Chiralpak-HSA
T1 sequence (P02768 25-609): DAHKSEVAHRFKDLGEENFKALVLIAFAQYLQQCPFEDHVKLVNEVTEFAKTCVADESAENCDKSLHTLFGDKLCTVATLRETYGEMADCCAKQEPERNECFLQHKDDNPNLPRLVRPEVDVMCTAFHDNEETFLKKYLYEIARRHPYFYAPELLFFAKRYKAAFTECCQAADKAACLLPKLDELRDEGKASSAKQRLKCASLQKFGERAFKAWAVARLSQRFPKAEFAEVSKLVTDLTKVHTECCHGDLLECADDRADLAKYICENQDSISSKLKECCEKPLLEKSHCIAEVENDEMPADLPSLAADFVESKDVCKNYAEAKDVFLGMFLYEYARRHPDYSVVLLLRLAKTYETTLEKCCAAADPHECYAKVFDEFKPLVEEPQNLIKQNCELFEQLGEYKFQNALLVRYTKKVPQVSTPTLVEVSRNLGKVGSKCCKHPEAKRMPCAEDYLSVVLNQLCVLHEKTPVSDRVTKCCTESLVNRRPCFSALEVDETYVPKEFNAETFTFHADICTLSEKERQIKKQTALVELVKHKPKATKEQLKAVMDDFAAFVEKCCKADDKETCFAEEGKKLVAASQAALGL
Excerpt: The gradient retention times obtained by HSA-HPAC and AGP-HPAC assays were standardized using a calibration set of compounds with known percentage of plasma protein binding data and procedure described in our previously published study. […] This verification assured that the protein affinity indices obtained by HPAC assays depict not only unspecific generally lipophilicity-driven interactions, but also highly specific recognition forces responsible of enantioselectivity.
as §1
The binding of biologically active compounds to the plasma proteins was investigated using affinity chromatographic columns by ChromTech (Cedex, France) containing immobilized human serum albumin (HSA) (Chiralpak-HSA, length 50 mm, i.d. 4.6 mm, particle size 5 µm) and α1-acid glycoprotein (AGP) (Chiralpak-AGP, length 50 mm, i.d. 4.6 mm, particle size 5 µm) and Agilent HPLC 1100 instrument. The 20 mM potassium phosphate buffer with the pH adjusted to 7.4 and iso-propanol were used as mobile phase components A and B. Retention data were collected at 25.0 ± 0.1 °C using gradient program as follows: 0 min/0% B, 6 min/30% B, 15 min/30% B and 20 min/0% B. Injection volume was set at 10 µL and the measurements were carried out at 25.0 ± 0.1 °C with flow rate of 1.5 mL/min. The absorbance of the analytes during a chromatographic run was collected in the spectral range 200–400 nm, and the detection wavelength for each analyte was the one providing the maximum peak height.

HSA Binding ± RSD (%) (n = 3) | Structure (SMILES)
80.07 ± 0.74 | C=C1CC[C@@H]2[C@](C)(CO)[C@H](O)CC[C@@]2(C)[C@@H]1C/C=C1/C(=O)OC[C@H]1O [Andrographolide, andrographolide]
87.71 ± 0.41 | C=C1CC[C@@H]2[C@](C)(CO[C@@H]3O[C@H](CO)[C@@H](O)[C@H](O)[C@H]3O)CCC[C@@]2(C)[C@@H]1CCC1=CCOC1=O [Neoandrographolide, neoandrographolide]
95.48 ± 0.41 | O=C(/C=C/C=C/c1ccc2c(c1)OCO2)N1CCCCC1 [Piperine, piperine]

Second part, the molecule before the results:

Structure (SMILES) | HSA Binding ± RSD (%) (n = 3)
O=C(C=Cc1ccc(O)cc1)CC(=O)C=Cc1ccc(O)cc1 [Bisdemetoxycurcumin, bisdemetoxycurcumin] | 98.37 ± 0.10
COc1cc(/C=C/C(=O)CC(=O)/C=C/c2ccc(O)cc2)ccc1O [Demetoxycurcumin, demetoxycurcumin] | 97.97 ± 0.35
